Results reported in ChEMBL document CHEMBL1153404, “Design and structural analysis of novel pharmacophores for potent and selective peroxisome proliferator-activated receptor gamma agonists” (J Med Chem, 2009).

Key:
[1] = biological target: T1, Peroxisome proliferator-activated receptor gamma (Homo sapiens, UniProt P37231)
T1 sequence (P37231 whole entry): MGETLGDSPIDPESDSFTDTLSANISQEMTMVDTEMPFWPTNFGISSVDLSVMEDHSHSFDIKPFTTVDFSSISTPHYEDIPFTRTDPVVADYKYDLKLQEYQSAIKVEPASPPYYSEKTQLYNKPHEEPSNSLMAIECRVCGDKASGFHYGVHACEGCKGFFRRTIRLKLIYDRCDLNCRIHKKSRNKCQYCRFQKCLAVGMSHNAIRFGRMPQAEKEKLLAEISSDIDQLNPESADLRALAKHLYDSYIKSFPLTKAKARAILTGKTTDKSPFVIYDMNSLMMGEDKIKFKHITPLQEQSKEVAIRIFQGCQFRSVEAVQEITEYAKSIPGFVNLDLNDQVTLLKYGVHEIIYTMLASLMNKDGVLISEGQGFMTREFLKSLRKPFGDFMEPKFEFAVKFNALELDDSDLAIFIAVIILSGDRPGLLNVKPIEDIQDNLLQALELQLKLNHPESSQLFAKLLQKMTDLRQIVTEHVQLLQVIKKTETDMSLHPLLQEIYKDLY
Description: Agonist activity at human PPARgamma receptor by cell based transactivation assay

[2] = biological target: T2, Peroxisome proliferator-activated receptor alpha (Homo sapiens, UniProt Q07869); assay: Agonist activity at human PPARalpha receptor by cell based transactivation assay; format: functional
T2 sequence (Q07869 whole entry): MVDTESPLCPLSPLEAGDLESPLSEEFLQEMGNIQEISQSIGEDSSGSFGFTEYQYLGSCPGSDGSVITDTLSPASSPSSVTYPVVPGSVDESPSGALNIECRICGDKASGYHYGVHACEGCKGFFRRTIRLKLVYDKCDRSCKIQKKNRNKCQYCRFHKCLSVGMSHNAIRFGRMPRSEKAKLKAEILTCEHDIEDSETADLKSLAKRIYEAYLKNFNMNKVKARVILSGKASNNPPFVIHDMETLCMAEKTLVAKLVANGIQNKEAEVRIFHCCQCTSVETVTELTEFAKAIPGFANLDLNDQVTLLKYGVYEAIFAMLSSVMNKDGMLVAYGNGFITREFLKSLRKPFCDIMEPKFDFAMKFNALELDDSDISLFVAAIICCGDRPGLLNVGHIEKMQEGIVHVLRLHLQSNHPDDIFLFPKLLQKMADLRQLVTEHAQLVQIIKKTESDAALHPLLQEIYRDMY

[3] = biological target: T3, Peroxisome proliferator-activated receptor delta (Homo sapiens, UniProt Q03181); assay: Agonist activity at human PPARdelta receptor by cell based transactivation assay
T3 sequence (Q03181 whole entry): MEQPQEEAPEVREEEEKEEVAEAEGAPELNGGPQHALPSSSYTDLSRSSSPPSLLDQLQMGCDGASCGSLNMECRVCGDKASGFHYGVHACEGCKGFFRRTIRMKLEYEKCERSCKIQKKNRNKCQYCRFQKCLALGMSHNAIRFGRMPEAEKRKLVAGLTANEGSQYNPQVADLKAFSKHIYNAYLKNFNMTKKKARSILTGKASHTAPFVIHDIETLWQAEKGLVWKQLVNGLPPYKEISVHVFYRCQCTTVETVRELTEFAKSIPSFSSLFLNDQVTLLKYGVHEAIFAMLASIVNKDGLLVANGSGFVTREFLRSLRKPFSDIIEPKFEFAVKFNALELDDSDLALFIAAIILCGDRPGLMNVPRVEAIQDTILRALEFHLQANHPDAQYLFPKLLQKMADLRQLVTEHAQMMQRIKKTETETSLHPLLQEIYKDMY

Homo sapiens [4] = species on record: Homo sapiens; assay: Selectivity of EC50 for human PPARgamma receptor over EC50 for human PPARalpha receptor
Homo sapiens [5] = species on record: Homo sapiens; assay: Selectivity of EC50 for human PPARalpha receptor over EC50 for human PPARdelta receptor
Homo sapiens [6] = species on record: Homo sapiens; assay: Selectivity of EC50 for human PPARalpha receptor over EC50 for human PPARgamma receptor

Compound	EC50 [1] [nM]	EC50 [2] [nM]	EC50 [3] [nM]	fold change (FC) (Homo sapiens [4])	fold change (FC) (Homo sapiens [5])	fold change (FC) (Homo sapiens [6])	Activity (Homo sapiens [4])
CCCc1cc(C(=O)c2ccc(F)cc2)ccc1OCCCn1ccc2cc(OC(C)(C)C(=O)O)ccc21	900	130	> 10000	–	–	–	–
CCCc1c(OCCCN2CCCc3c(OC(C)(C)C(=O)O)cccc32)ccc2cc(C(=O)c3ccccc3)ccc12	100	120	> 10000	–	–	–	–
CCCc1cc(C(=O)c2ccccc2)ccc1OCCCn1ccc2cc(OC(C)(C)C(=O)O)ccc21	420	40	5270	–	–	–	–
CCCc1cc(C(=O)c2ccc3ccccc3c2)ccc1OCCCn1ccc2cc(OC(C)(C)C(=O)O)ccc21	370	30	> 10000	–	–	–	–
CCCc1c(OCCCn2ccc3cc(OC(C)(C)C(=O)O)ccc32)ccc2cc(C(=O)c3ccoc3)ccc12	430	130	> 10000	–	–	–	–
CCCc1cc(C(=O)c2ccc(-c3ccccc3)cc2)ccc1OCCCn1ccc2c(OC(C)(C)C(=O)O)cccc21	300	4070	> 10000	15	> 300	> 300	–
CN(CCOc1ccc(CC2SC(=O)NC2=O)cc1)c1ccccn1 (stereo not given)	–	–	–	–	–	–	80
CCCc1c(OCCCn2ccc3cc(OC(C)(C)C(=O)O)ccc32)ccc2c(C(=O)c3ccccc3)cccc12	3500	200	> 10000	–	–	–	–
CCCc1cc(C(=O)c2ccc(-c3ccccc3)cc2)ccc1OCCCN1CCCc2cc(OC(C)(C)C(=O)O)ccc21	100	> 10000	> 10000	–	–	–	–
CCCc1cc(C(=O)c2ccc3ccccc3c2)ccc1OCCCn1ccc2c(OC(C)(C)C(=O)O)cccc21	2800	30	> 10000	–	> 100	> 100	–
CCCc1cc(C(=O)c2ccccc2)ccc1OCCCn1ccc2c(OC(C)(C)C(=O)O)cccc21	> 10000	30	> 10000	–	–	–	–
CCCc1cc(C(=O)c2ccc(OC)cc2)ccc1OCCCn1ccc2cc(OC(C)(C)C(=O)O)ccc21	470	50	4450	–	–	–	–
CCCc1c(OCCCn2ccc3cc(OC(C)(C)C(=O)O)ccc32)ccc2cc(C(=O)c3ccncc3)ccc12	2070	> 10000	> 10000	–	–	–	–
CCCc1c(OCCCn2ccc3cc(OC(C)(C)C(=O)O)ccc32)ccc2cc(C(=O)c3ccc(F)cc3)ccc12	2120	> 10000	> 10000	–	–	–	–
CCCc1c(OCCCn2ccc3cc(OC(C)(C)C(=O)O)ccc32)ccc2cc(C(C)=O)ccc12	1070	> 10000	> 10000	–	–	–	–
CCCc1cc(C(=O)c2ccc(-c3ccccc3)cc2)ccc1OCCCN1CCCc2c(OC(C)(C)C(=O)O)cccc21	50	3990	> 10000	–	–	–	–
CCCc1c(OCCCn2ccc3cc(OC(C)(C)C(=O)O)ccc32)ccc2cc(C(=O)c3ccc(OC)cc3)ccc12	510	130	> 10000	–	–	–	–
CCCc1c(OCCCN2CCCc3cc(OC(C)(C)C(=O)O)ccc32)ccc2cc(C(=O)c3ccccc3)ccc12	540	240	> 10000	–	–	–	–
CCCc1c(OCCCn2ccc3cc(OC(C)(C)C(=O)O)ccc32)ccc2cc(C(=O)c3ccccc3)ccc12	–	–	> 10000	–	–	–	–
CCCc1cc(C(=O)c2ccc(-c3ccccc3)cc2)ccc1OCCCn1ccc2cc(OC(C)(C)C(=O)O)ccc21	120	1920	> 10000	15	–	–	–
CCCc1c(OCCCn2ccc3cc(OC(C)(C)C(=O)O)ccc32)ccc2cc(Cc3ccccc3)ccc12	> 10000	> 10000	> 10000	–	–	–	–
